From patent publication US10406227B2, “Photoactivated molecules for light-induced modulation of the activity of electrically excitable cells and methods of using same” (University of Southern California, priority 2012, dated 2019)
Read-outs that look alike come from different tables or passages of the source.

Tests used:
INS cells = assay: Imaging RubpyC17 in live cells (membrane luminescence); format: cell-based, rat
Procedure: (§1) Cells were imaged at 1-3 days after plating. The glass-bottomed chambers with adherent cells were washed twice with PBS and then filled with standard extracellular solution consisting of 140 mM NaCl, 2.8 mM KCl, 10 mM HEPES, 1 mM MgCl2, 2 mM CaCl2, and 10 mM glucose, pH adjusted to 7.2-7.4 and osmolarity adjusted to 290-310 mOsm. The chamber was then mounted on an Olympus IX70 inverted microscope stage for imaging, using a Cascade 512B EMCCD camera, operated by Metamorph software. Initial imaging was done with cells in extracellular solution without RubpyC17, first under brightfield to evaluate cell health and morphology, then under widefield argon ion laser illumination at 488 nm (Coherent, Innova 90-5, Santa Clara, Calif.), to evaluate autofluorescence. Next, the extracellular solution was removed and replaced with extracellular solution containing the RubpyC17 compound (10 μM in ≤0.01% DMSO, final concentrations). Cell images were then acquired with illumination at 488 nm (collected with a long-pass red emission filter). For electrophysiological experiments, RubpyC17 compound was added to the extracellular solution (2-10 μM in ≤0.01% DMSO, final concentrations as indicated) and cells were incubated for 1.5-45 min, as indicated, then washed with extracellular solution without RubpyC17. Some chromaffin cells were also exposed continuously to 490-900 nM RubpyC17-containing extracellular solution.
(§2) Illustrated here are rat insulinoma INS cells (FIG. 1C, top), human embryonic kidney (HEK293T) cells (FIG. 1C, middle), and primary cultured mouse chromaffin cells (FIG. 1C, bottom). […] All cell types preserved morphology for at least 10 minutes. […] One embodiment of the possible light-induced electron transfer is depicted in FIG. 1D.

HEK293T cells = assay: as above; format: cell-based, human
Procedure: as §1, §2

[1] = test system: mouse adrenal chromaffin cells; assay: Perforated patch clamp action potential recording; format: cell-based
Procedure: Action potentials in chromaffin cells were monitored using perforated patch clamp electrophysiology in current-clamp mode, using an EPC10 amplifier and Pulsemaster data acquisition software (HEKA electronics). A coverslip containing mouse chromaffin cells was transferred to a recording chamber and perfused with extracellular solution. Extracellular solution consists of 140 mM NaCl, 2.8 mM KCl, 10 mM HEPES, 1 mM MgCl2, 2 mM CaCl2, 10 mM glucose, pH adjusted to 7.3, and osmolarity adjusted to 290-300 mOsm. Intracellular solution consisted of 145 mM KCl, 10 mM NaCl, 1 mM MgCl2, and 10 mM HEPES, pH adjusted to 7.3 and osmolarity adjusted to 290-300 mOsm. Perforation solution was prepared by adding 4.5 μl of 125 mg/ml stock of amphoterecin B (Sigma) in DMSO to 1.8 mls of intracellular solution, and homogenizing for 5-10 s. Perforation was achieved within 3-10 min following gigaseal formation. Series resistances were in the range of 8-22 Mohm. Light stimulation in the blue spectrum originated from a xenon lamp source with an irradiance value of 0.480 mE s^−1 m^−2 through a 470/40 nm bandpass excitation filter. The duration of illumination varied and is indicated by bars on figures.
The behavior of excitable cells (cells capable of firing action potentials) treated with RubpyC17 was next investigated. Perforated patch clamp recording was performed on mouse adrenal chromaffin cells pretreated with 450-900 nM RubpyC17 for 15-30 minutes before beginning electrophysiological recordings. […] A slow, gradual reversal, on the order of seconds after light illumination was terminated (FIG. 3A), was observed.

chromaffin cells = assay: Cell-attached membrane perforation test (capacitive charging transient); format: cell-based, mouse; conditions: 18 μM in patch pipette; 10 minutes after gigaseal formation
From the text: FIGS. 5A-5H depict data from various experiments related to characteristics of RubpyC17-loaded cells. […] Inset images shown to the right of trace confirmed proper integration of RubpyC17 in patched cells. FIGS. 5C-5E show the light-induced action potential firing in chromaffin cells was not due to biophysical changes in voltage-gated ion channels as there were no significant changes in current-voltage relationships (C-D) nor in steady-state activation curve (E) in RubpyC17-loaded chromaffin cells before (open circle) or during ([…]) light illumination. […] Peak inward currents from each stimulation jump were plotted against corresponding stimulating voltages (n=6). […] Data from representative cell is shown (n=5). […] Currents resulting from capacitor-like behavior of chromaffin cell membranes during hyperpolarizing jumps to −85 mV from a resting membrane potential of −80 mV were recorded 5 min following giga-seal formation for amphoterecin B (bottom trace) or 10 min following giga-seal formation for RubpyC17 (top trace).
Finally, to test whether illumination of RubpyC17 incorporated in cell membranes causes nonspecific membrane poration or other damage, 18 μM RubpyC17 was loaded inside a patch pipette and attached to a cell (gigaseal formation) in the cell-attached configuration. […]

RCS rats [2] = assay: Extracellular recording from superior colliculus after intravitreal injection; format: in vivo, rat
From the text: (§3) This finding was reproduced in 3 of 3 RCS rats injected with Rubpy-C17, and in 2 of 2 control (sham injection) RCS rats.

RCS rats [3] = assay: Retina histology / pathology after intravitreal injection; format: in vivo, rat
From the text: as §3

[4] = cited from earlier work
[5] = 10 μM in bath, 488 nm excitation
[6] = 10 minutes after RubpyC17 removal

## [Ru(bpy)2(bpy-C17)](PF6)2 [RubpyC17]
INS cells; 10 μM RubpyC17
  time cell morphology preserved: at least 10 minutes
INS cells; [5]
  incorporation into plasma membrane (membrane-localized luminescence): rapidly and stably incorporates into mammalian cell membranes
INS cells; [6]
  membrane luminescence after removal from bath solution: still observed
HEK293T cells; 10 μM RubpyC17
  time cell morphology preserved: at least 10 minutes
HEK293T cells; [5]
  incorporation into plasma membrane (membrane-localized luminescence): rapidly and stably incorporates into mammalian cell membranes
HEK293T cells; [6]
  membrane luminescence after removal from bath solution: still observed
[1]; 900 nM RubpyC17 pretreatment, 5 mM ascorbate
  effect of light on action potential firing: triggered action potentials or increased the rate of action potential firing
[1]; 2 μM RubpyC17 for 1.5 min
  action potential firing rate, single cell, ascorbate changed for ferricyanide: light-induced increase and then light-induced decrease
[1]; 100 μM ferricyanide
  effect of light on action potential firing: decreased the rate of action potential firing
[1]; before vs during light illumination
  action potential waveform shape: no change in the shape of action potential waveforms
[1]; ferricyanide increased from 100 to 200 μM
  effect of light on action potential firing: further suppressed action potential firing
Chromaffin cells
  capacitive charging transient (membrane perforation): an increase in the capacitive charging transient was not detected
RCS rats [2]; intravitreal, final concentration 100 μM
  RCS rats showing light-evoked superior colliculus activity: 3 of 3
RCS rats [2]; intravitreal, final concentration 100 μM, 30 minutes after injection
  light-evoked electrical activity in superior colliculus: elicited reproducible and stereotypical electrical activity
RCS rats [2]; single eye injection
  persistence of light-induced SC electrical responses after injection: up to 3 days
RCS rats [3]; 3 days after injection, preliminary
  histology of the retina: no evidence of retinal cell death or white blood cell infiltrates
RCS rats [3]; eyes injected with Rubpy-C17
  initial pathology studies: absence of obvious signs of deleterious effects
[4]; photo-activated RubpyC17 to oxidant ferricyanide, aqueous solution
  electron transfer rate ket: ~6.5e+09 M⁻¹ s⁻¹
[4]; reductant ascorbate to photo-activated RubpyC17
  electron transfer rate ket: ~2e+07 M⁻¹ s⁻¹
